Assay results as given in patent publication US20200108089A1, “Gemcitabine Derivatives for Cancer Therapy” (Suzhou Sirnaomics Biopharmaceuticals Co., Ltd., priority 2017, published 2020).
Where two headings read alike, the source gives them in different places. Bridge positions count the residues as written; N and C are the ends. Ends that are not written are not given here. I, II: the chains in the order shown.

How the values were obtained:
miR-132 = assay: Knockdown of miR-132 by antagomir-132 nanoparticles in mouse eyes; assay type: in vivo; conditions: QPCR
Experimental: FIG. 4. Knockdown of miR-132 by antagomir-132 nanoparticles in mouse eyes. […] One way ANOVA with Bonferroni's post hoc test was used to calculate the level of significance. P≤0.05 (*). Six corneas were collected and pooled for analysis by QPCR or WB. (B) Antagomir-132 and scrambled sequences were injected in HSV infected mice subconjunctively and the quantification of RasGAP mRNA from corneas isolated from different groups was carried out (n=6 mice/group). The level of significance was determined by student's t test (unpaired). ***P≤0.001.
One way ANOVA with Bonferroni's post hoc test was used to calculate the level of significance. P≤0.05 (*). Six corneas were collected and pooled for analysis by QPCR or WB. (B) Antagomir-132 and scrambled sequences were injected in HSV infected mice subconjunctively and the quantification of RasGAP mRNA from corneas isolated from different groups was carried out (n=6 mice/group). The level of significance was determined by student's t test (unpaired). ***P≤0.001 (FIG. 4).

Panc-1 cells [1] = assay: Effect of TGF-β1siRNA and mTORsiRNA on chemosensitivity of Panc-1 cells to low dose GEM-TCA; assay type: cell-based, human; conditions: 48 h; for maximum cell killing: siRNA 30 nM plus GEM-TCA up to 1 μM; for sensitization of Panc-1 cells to GEM-TCA: siRNA 30 nM
Experimental: FIG. 10. Effect of forward transfection with TGF-β1siRNA and mTORsiRNA chemosensitivity of Panc-1 cells to […] The next day, the medium was supplemented with 3.9 nM-1000 nM […] diluted in the same medium. At 48 h post chemical exposure cytotoxicity was assessed with Cell Titer-Glo Luminescent cell viability assay (Promega). Values derived from untreated cells (Blank) were set as 100%. All values represent the mean of ±S.D. of four replicates for each dilution. Paired sample two-tailed Student's t-test was used to determine significance.
. At 48 h post chemical exposure cytotoxicity was assessed with Cell Titer-Glo Luminescent cell viability assay (Promega). Values derived from untreated cells (Blank) were set as 100%. All values represent the mean of ±S.D. of four replicates for each dilution. Paired sample two-tailed Student's t-test was used to determine significance. The TGF-β1siRNA was previously identified and validated with multiple in vitro and in vivo assays: […]

mTOR [2] = assay: Selection of potent siRNA targeting mTOR, transfection and qRT-PCR, CT26; assay type: cell-based; conditions: mouse CT26 cells, qRT-PCR
Description: (§1) FIG. 3. Selection of potent siRNA targeting mTOR. (A) The lower panel illustrates selection of eight 25 mer siRNA duplexes with control siRNA were transfected into human MDA-MB-231 cells and mouse CT26 cells. 24 hr later, mRNA was collected and subject to Q-RT-PCR with the standard control gene target Rigs15.
(§2) For mTOR siRNA selection, we first use in silico screening selected 8 siRNA sequences for siRNA oligo synthesis. And then we transfected these siRNAs into human MDA-MB-231 cells and mouse CT26 cells. Twenty-four hours later, the total mRNA collected and subjected to qRT-PCR analysis with the standard control gene target Rigs15. From FIG. 3 we can see that the potent siRNA duplexes targeting mTOR (both human and mouse mRNAs) was selected.
(§3) We have identified potent mTOR specific siRNA through cell culture studies with human breast cancer cell line MDA-MB-231 and mouse CT26 cells, followed by qRT-PCR analyses: mTOR-siRNA: […]

Panc-1 cells [3] = assay: Effect of forward transfection with mTOR siRNA on chemosensitivity of Panc-1 cells to GEM-TCA; assay type: cell-based, human; conditions: mTOR-siRNA 10 nM and 20 nM; GEM-TCA 12.3 nM to 1 μM; 72 h; vs non-targeting siRNA
Experimental: FIG. 9. Effect of forward transfection with mTORsiRNA on chemosensitivity of Panc-1 cells to […] 5×10^3 Panc-1 cells were seeded on the wells of 96-well plate in 100 ul of DMEM/10% FBS. The next day cells were transfected with siRNA/Lipofectamine 2000 complexes accordingly to the manufactures' recommendations. In 5-6 h. medium was changed. The next day various concentrations of […] were applied to the transfected cells. At 72 h post chemical exposure cytotoxicity was assessed with Cell Titer-Glo Luminescent cell viability assay (Promega). Values derived from untreated cells (Blank) were set as 100%. All values represent the mean of ±S.D. of four replicates for each dilution. * different from cells transfected with control, not-targeting siRNA (p<0.05, Student's t test)
To realize the original hypothesis that the oncogenic gene target knockdown may induce a chemosensitivity of Panc-1 cell toward to […], the experiment was conducted with following procedures. 5×10^3 Panc-1 cells were seeded on the wells of 96-well plate in 100 ul of DMEM/10% FBS. The next day cells were transfected with siRNA/Lipofectamine 2000 complexes accordingly to the manufactures' recommendations. In 5-6 h. medium was changed. […] At 72 h post chemical exposure cytotoxicity was assessed with Cell Titer-Glo Luminescent cell viability assay (Promega). […]

mTOR [4] = assay: Selection of potent siRNA targeting mTOR, transfection and qRT-PCR, MDA-MB-231; assay type: cell-based; conditions: human MDA-MB-231 cells, qRT-PCR
Description: as §1, §2, §3

Panc-1 cells [5] = assay: Dosage-dependent cytotoxicities of Gemcitabine and GEM-HKP conjugate, Cell Titer-Glo; assay type: cell-based, human; conditions: Panc-1, 72 hrs post treatment
Experimental: FIG. 21. Dosage-Dependent Cytotoxicities of Gemcitabine and GEM-HKP conjugate in the Panc-1 cell culture, at 72 hrs post treatments After exposures of the Panc-1 cells to Gemcitabine only, GEM-HKP conjugate, the cytotoxicities of each treatment was assessed with a “Cell Titer-Glo Luminescent cell viability assay” (Promega). Values derived from untreated cells (Blank) were set as 100%. All values represent the mean of ±S.D. of four replicates for each dilution. In this study, the HKP concentration at each point equals to its concentration in the Gem/HKP.

[6] = system: LX-1, CALU-6, NCI-H460, NCI-H520 human lung xenografts; conditions: cited from earlier work
[7] = cited from earlier work
[8] = system: Lewis lung murine xenograft; conditions: cited from earlier work
[9] = -NH2 of Gemcitabine; cited from earlier work

Which “miR-132 knockdown in the corneas” value (miR-132) does the source give for “Antagomir-132: modified RNA oligo targeting miR-132 (accguggcuuucgauuguuacu), packaged with HKP into nanoparticles (antisense ACCGUGGCUUUCGAUUGUUACU; chemically modified, pattern not given here, packaged with HKP into nanoparticles)” here?
Its value is “peak miR-132 knockdown”.

Which results are given for “TGF-β1siRNA: siRNA duplex to TGF-β1; sense 5′-r(CCUCAAUUCAGUCUCUCAUCUGCAA)-3′ in b118 (sense CCCAAGGGCUACCAUGCCAACUUCU; antisense AGAAGUUGGCAUGGUAGCCCUUGGG; chemistry not given here)”?
maximum cell killing (Panc-1 cells [1]): 60%; sensitization of Panc-1 cells to GEM-TCA (Panc-1 cells [1]; GEM-TCA 3.9 nM): significantly sensitize; sensitization of Panc-1 cells to GEM-TCA (Panc-1 cells [1]; GEM-TCA 62.5 nM): sensitization effect was still significant

Which results are given for “mTOR-siRNA: 25mer siRNA duplex specific to mTOR mRNA; sense 5′-r(GGUCUGGUGCCUGGUCUGAUGAUGU)-3′ in b114 (sense CACUACAAAGAACUGGAGUUCCAGA; antisense UCUGGAACUCCAGUUCUUUGUAGUG; further chemistry not given here)”?
mTOR silencing potency (mTOR [2]): potent; tumor cell killing by GEM-TCA after siRNA transfection (Panc-1 cells [3]): significantly improved; mTOR silencing potency (mTOR [4]): potent; maximum cell killing (Panc-1 cells [1]): 60%; sensitization of Panc-1 cells to GEM-TCA (Panc-1 cells [1]; GEM-TCA 3.9 nM): significantly sensitize; sensitization of Panc-1 cells to GEM-TCA (Panc-1 cells [1]; GEM-TCA 15.6 nM): sensitization effect was disappeared

With “I: KHHHKHHHKHHHKHHHKKKK-NH2 / II: KHHHKHHHKHHHKHHHK / III: KHHHKHHHKHHHKHHHK / IV: KHHHKHHHKHHHKHHHK (amide I:18-IV:C, I:19-III:C, I:20-II:C) [HKP]” as the compound, how does the cytotoxicity (Panc-1 cells [5]) read?
The cytotoxicity was “no cytotoxicity”.

For `Nc1ccn([C@@H]2O[C@H](CO)[C@@H](O)C2(F)F)c(=O)n1` [Gemcitabine, 2′,2′-difluorodeoxycytidine], which “activity in combination with cisplatin” value ([6]; LX-1 and CALU-6 human lung xenografts) is on record?
Its value is “showed activity”.

What about the “activity in combination with cisplatin” value ([6]; NCI-H460 or NCI-H520 xenografts) of the same compound?
Its value is “minimal activity”.

And the “activity with cisplatin in vitro” value [7]?
The value was “dose-dependent synergistic activity”.

What about the interaction with cisplatin [8] of the same compound?
The interaction with cisplatin was “synergistic”.

And the pKa [9]?
The pKa was about 2.8.
